In this experiment the test system is Huh-7 HCV replicon cells (sub-line 5-15; genotype 1b). Nature of the experiment: Replicon ELISA cell based assay, genotype 1b. Also on record: species or system HCV genotype 1b. As to conditions: Hepatitis C virus, Huh-7 genotype 1b replicon (sub-line 5-15), 72 hours. The protocol: 100 μL of medium containing 10% FCS were added to each well of clear, flat-bottomed 96 well microplates, excepting wells in the top row. Test compound was diluted in assay medium to twice the final required starting concentration from a 40 mM stock solution in DMSO. 200 μL of the starting dilution were introduced into two wells each in the top row and doubling dilutions made down the plate by the sequential transfer of 100 μL aliquots with thorough mixing in the wells; the final 100 μL were discarded. The two bottom rows were not used for compound dilutions. Huh-7 HCV replicon cell monolayers nearing confluency were stripped from growth flasks with versene-trypsin solution and the cells were resuspended in assay medium at either 2×10^5 cells/mL (sub-line 5-15; genotype 1b; Lohmann, V., Komer, F., Koch, J-O., Herian, U., Thielmann, L. And Bartenschlager, R., 1999, Science, 285, pp 110-113) or at 3×10^5 cells/mL (genotype 1a; Gu, B., Gates, A. T., Isken, O., Behrens, S. E. and Sarisky, R. T., J. Virol., 2003, 77, 5352-5359). 100 μL of cell suspension were added to all wells and the plates incubated at 37° C. for 72 hours in a 5% CO2 atmosphere.
Following incubation, the assay medium was aspirated from the plates. The cell sheets were washed by gentle immersion in phosphate buffered saline (PBS), which was then aspirated off, and fixed with acetone:methanol (1:1) for 5 minutes. Following a further wash with PBS, 100 μL of ELISA diluent (PBS+0.05% v/v Tween 20+2% w/v skimmed milk powder) were added to all wells and the plates incubated at 37° C. for 30 minutes on an orbital platform. The diluent was removed and each well then received 50 μL of a 1/200 dilution of anti-HCV specific, murine, monoclonal antibody (either Virostat #1872 or #1877), except for wells in one of the compound-free control rows which received diluent alone to act as negative controls. The plates were incubated at 37° C. for 2 hours and washed 3 times with PBS/0.05% Tween 20, then 50 μL of horseradish peroxidase conjugated, anti-mouse, rabbit polyclonal serum (Dako #P0260), diluted 1/1000, were added to all wells. The plates were incubated for a further hour, the antibody removed and the cell sheets washed 5 times with PBS/Tween and blotted dry. The assay was developed by the addition of 50 μL of ortho-phenylenediamine/peroxidase substrate in urea/citrate buffer (SigmaFast, Sigma #P-9187) to each well, and colour allowed to develop for up to 15 minutes. The reaction was stopped by the addition of 25 μL per well of 2 M sulphuric acid and the plates were read at 490 nm on a Fluostar Optima spectrophotometer.
The substrate solution was removed and the plates were washed in tap water, blotted dry and the cells stained with 5% carbol fuchsin in water for 30 minutes. The stain was discarded and the cell sheets washed, dried and examined microscopically to assess cytotoxicity.
The absorbance values from all compound-free wells that had received both primary and secondary antibodies were averaged to obtain a positive control value. The mean absorbance value from the compound-free wells that had not received the primary antibody was used to provide the negative (background) control value. The readings from the duplicate wells at each compound concentration were averaged and, after the subtraction of the mean background from all values, were expressed as a percentage of the positive control signal. The quantifiable and specific reduction of expressed protein detected by the ELISA in the presence of a drug can be used as a measure of replicon inhibition. GraFit software was used to plot the curve of percentage inhibition against compound concentration and derive the 50% inhibitory concentration (IC50) for the compound.
On the technique in general: A replicon is a self-replicating genome or part of one, used to study replication in cells.
Turning to `COc1cc(C(=O)N2[C@@H](c3nccs3)[C@@H](c3cnccn3)C[C@@]2(CC(C)C)C(=O)O)ccc1C(C)(C)C` (racemic) [Compound A, rel-(2S,4S,5R)-2-Isobutyl-1-(4-tert-butyl-3-methoxybenzoyl)-4-(pyrazin-2-yl)-5-(1,3-thiazol-2-yl)pyrrolidine-2-carboxylic acid, reference compound], the IC50 (in general, the concentration at which inhibition is half-maximal) fell in the range of 100 to 10000 nM.

`COc1cc(C(=O)N2[C@@H](c3nccs3)[C@@H](c3cnccn3)C[C@@]2(Cc2ccccn2)C(=O)O)ccc1C(C)(C)C` (racemic) [Compound C, rel-(2R,4S,5R)-1-(4-tert-Butyl-3-methoxybenzoyl)-2-(pyridin-2-ylmethyl)-4-(pyrazin-2-yl)-5-(1,3-thiazol-2-yl)pyrrolidine-2-carboxylic acid, reference compound]: the IC50 lay in the range of 100 to 10000 nM.

`COc1cc(C(=O)N2[C@@H](c3nccs3)[C@@H](c3cnccn3)C[C@@]2(Cc2c[nH]cn2)C(=O)O)ccc1C(C)(C)C` (racemic) [Compound D, rel-(2R,4S,5R)-1-(4-tert-Butyl-3-methoxybenzoyl)-2-(1H-imidazol-4-yl-methyl)-4-(pyrazin-2-yl)-5-(1,3-thiazol-2-yl)-pyrrolidine-2-carboxylic acid, reference compound] came in with an IC50 of 100 to 10000 nM.

`COc1cc(C(=O)N2[C@@H](c3cncs3)[C@@H](c3cnccn3)C[C@@]2(CCSC)C(=O)O)ccc1C(C)(C)C` (racemic) [Compound E, rel-(2R,4S,5R)-1-(4-tert-Butyl-3-methoxybenzoyl)-2-(2-(methylthio)ethyl)-4-(pyrazin-2-yl)-5-(1,3-thiazol-5-yl)-pyrrolidine-2-carboxylic acid, reference compound]: the IC50 lay within 100 to 10000 nM.

Regarding `COc1cc(C(=O)N2[C@@H](c3nccs3)[C@@H](c3cnccn3)C[C@@]2(CCS(C)(=O)=O)C(=O)O)ccc1C(C)(C)C` (racemic) [Compound F, rel-(2R,4S,5R)-1-(4-tert-Butyl-3-methoxybenzoyl)-2-(2-(methylsulphonyl)ethyl)-4-pyrazin-2-yl-5-(1,3-thiazol-2-yl)-pyrrolidine-2-carboxylic acid, reference compound], the IC50 was above 10000 nM.

The compound `COc1cc(C(=O)N2[C@@H](c3nccs3)[C@@H](c3cnccn3)C[C@@]2(Cc2ccccc2)C(=O)O)ccc1C(C)(C)C` (racemic) [Compound G, rel-(2R,4S,5R)-1-(4-tert-Butyl-3-methoxybenzoyl)-2-(phenylmethyl)-4-(pyrazin-2-yl)-5-(1,3-thiazol-2-yl)pyrrolidine-2-carboxylic acid, reference compound] yielded an IC50 of 100 to 10000 nM.

`COc1cc(C(=O)N2[C@@H](c3nccs3)[C@@H](c3cnccn3)C[C@@]2(Cc2cscn2)C(=O)O)ccc1C(C)(C)C` (racemic) [Example 1, rel-(2R,4S,5R)-1-(3-Methoxy-4-tert-butylbenzoyl)-4-(pyrazin-2-yl)-2-(1,3-thiazol-4-ylmethyl)-5-(1,3-thiazol-2-yl)pyrrolidine-2-carboxylic acid] returned a half-inhibitory concentration (IC50) below 100 nM.

In turn, `COc1cc(C(=O)N2[C@@H](c3nccs3)[C@@H](c3cnccn3)C[C@@]2(Cc2nccs2)C(=O)O)ccc1C(C)(C)C` (racemic) [Example 3, rel-(2R,4S,5R)-1-(3-Methoxy-4-tert-butylbenzoyl)-4-(pyrazin-2-yl)-2-(1,3-thiazol-2-ylmethyl)-5-(1,3-thiazol-2-yl)pyrrolidine-2-carboxylic acid] returned an IC50 below 100 nM.

For `COc1cc(C(=O)N2[C@@H](c3ncc(C)s3)[C@@H](c3cnccn3)C[C@@]2(Cc2ccsn2)C(=O)O)ccc1C(C)(C)C` (racemic) [Example 5, rel-(2R,4S,5R)-1-(3-Methoxy-4-tert-butylbenzoyl)-5-(5-methyl-1,3-thiazol-2-yl)-4-(pyrazin-2-yl)-2-(1,2-thiazol-3-ylmethyl)pyrrolidine-2-carboxylic acid], the IC50 is below 100 nM.

For the origin of these results see patent publication US20090227600A1, “4-(PYRAZINE-2-YL) -PYRROLIDINE -2-CARBOXYLIC ACID COMPOUNDS AND DERIVATIVES THEREOF AS HEPATITIS C VIRUS INHIBITORS” (priority 2004, published 2009).
